For experiment [1], the system named is DSS-induced chronic enteritis mouse model. Kind of experiment: Oral efficacy in DSS-induced chronic enteritis mouse model. The settings on record: for Morphological observation of colon (length, macroscopic symptoms, adhesions, congestion): DSS mouse, sulfasalazine 300 mg/kg, tofacitinib 30 mg/kg, FIG. 2C; for Body weight recovery rate (%) / Intestinal weight recovery rate (%): chronic enteritis (DSS-water-DSS, total 35 days), mouse. Type of experiment: in vivo, C57BL/6 mice. As to the method: (§1) C57BL/6 mice aged 7-8 weeks were purchased from OrientBio (Korea), stabilized with general solid feed for 7 days, and then used in this experiment. Feed and water were freely supplied during the experiment period, and the temperature of the breeding room was maintained at 25±1° C. and the relative humidity at 50±10%. Lighting management was controlled in a 12-hour light-dark cycle by an automatic lighting controller.
(§2) Enteritis was induced in mice by allowing them to freely ingest drinking water containing 2% DSS salt (M.W. 36,000˜50,000, MP Biomedicals, LLC, OH, USA). For the chronic enteritis model, DSS was administered using a schedule of DSS administration for the first 7 days, administration of normal drinking water for 14 days, repeated administration of DSS for 7 days from the 21st day, and administration of normal drinking water for 7 days. The drug was administered once a day, 6 days a week from the first day of DSS treatment (FIG. 2A). […] In order to measure the dose-dependent therapeutic effect of the drug in the acute enteritis model, DSS was administered for 5 days to induce enteritis, and then the drug was administered for 14 days to measure the degree of recovery and treatment of enteritis (FIG. 3A). The drug was administered orally once daily for […] at a fixed time.
(§3) Changes in body weight of each mouse were observed during the DSS and drug administration using a digital mass meter.
(§4) The colon of the mouse was extracted, and the length and weight from the anus to the cecum were measured.
(§5) Tissue staining was performed in the same manner as in the case of hematoxylin/eosin staining of the rat colon tissue, and scoring indexes of mucosal damage and recovery were applied in the same way.

Experiment [2] has as its system collagen-induced rheumatoid arthritis animal model. Kind of experiment: Oral efficacy in collagen-induced rheumatoid arthritis (CIA) mouse model. To be noted: oral, up to 35 days, FIG. 5A. Type of experiment: in vivo, DBA/1J mice. As to the method: 12-week-old normal male mice and arthritis-induced DBA/1J mice were purchased from Central Lab. Animal Inc [To induce arthritis, DBA/1J mice were sensitized by injecting a mixed solution of Complete Freund's Adjuvant (CFA; DIFCO, Detroit, MI) and Bovine Type II collagen (1:1, v/v) intradermally at the pinna base at 8 weeks of age, and then, secondary sensitization was performed by intradermal injection at the tail head at 11 weeks of age]. The purchased arthritis mice were acclimatized to the laboratory environment for a week, and then oral administration of the drug was started.
Visual observation of arthritic lesions was performed using the following scores based on a reference (Barnett et al., 1998).
Therefore, the highest score for arthritic lesions was 16 per mouse.
The hind paw thickness, which is one of the pathological indices of rheumatoid arthritis, was measured using a caliper.
The right hind leg of each mouse was extracted, and all skin and muscles were removed, leaving only the bones and joints. The hind leg was fixed in 4% paraformaldehyde solution for 2 days, then immersed in 10% formic acid for 5 days to decalcify, and then immersed in 30% sucrose solution. When the tissue subsided, the articular tissue was cut into […] thick using a cryomicrotome (Microm HM 450, Thermo Fisher Scientific, Germany) and stored in a cryopreservation solution. Staining was performed using the stored tissue sections. After attaching the tissue sections to the slide glass, they were hydrated with 100%, 95%, 70%, and 50% ethanol solutions, and some were stained with safranin and others were stained with hematoxylin/eosin. For safranin staining, the tissue sections were first stained with 0.1% fast green solution, washed with 1% acetic acid solution, and then stained with 1% safranin solution. Thereafter, the tissue sections were dehydrated by immersing in ethanol solutions in the reverse order of hydration, and then preserved in xylene solution and mounting solution, and photographed under a microscope. Hematoxylin/eosin staining was performed in the same manner as in the colon tissue staining. The tissue sections were dehydrated, preserved in xylene solution and mounting solution, and observed under a microscope.
The degree of microscopic tissue damage of the stained articular tissue was measured using the following scores.
After the spleen and draining lymph nodes of the mice were extracted, the number of immune cells was counted. To confirm the distribution of Th1 and Th17 cells, the immune cells obtained from each organ were stimulated using PMA/Ionomycin and Golgi stop.
After staining using an anti-IFN-γ antibody that can identify Th1 cells, an anti-IL-17 antibody that can identify Th17 cells, and an anti-CD8 antibody that can identify cytotoxic T cells, the proportion of inflammatory cells among the total immune cells was confirmed using flow cytometry.

Experiment [3] deals with DSS-induced acute enteritis mouse model. Briefly: Oral efficacy in DSS-induced acute enteritis mouse model. The format is in vivo, C57BL/6 mice. To be noted: acute enteritis (DSS), mouse. As for the experimental part:
as §1, §2, §3, §4
The degree of neutrophil infiltration in the tissue was measured by the amount of MPO, a neutrophil marker enzyme. The colon tissue with a size of 1 cm was washed with cold PBS and weighed, to which a lysis buffer (pH7.4, 200 mM NaCl, 5 mM EDTA, 10 mM tris, 10% glycerin, 1 mM PMSF, 1 μg/mL leupeptin and 28 μg/mL aprotinin) was added (500 μL of per 10 mg of tissue weight), and then homogenized using Bead Blaster® D2400 homogenizer (Benchmark Scientific, NJ, USA). […] (HK210, Hycult Biotechnology, Netherlands). The supernatant was added to a 96 well plate (100 μL/well) coated with an anti-mouse MPO antibody, and incubated for 1 hour at room temperature, followed by washing 3 times with a washing buffer. A reconstituted tracer was added to the plate (100 μL/well), which was reacted at room temperature for 1 hour, washed 3 times, and then 100 μL of streptavidin-peroxidase conjugate was added to each well of the plate. The plate was reacted at room temperature for 1 hour, washed, and 100 μl of TMB substrate solution was added to each well of the plate, followed by reaction for 30 minutes. The reaction was terminated by adding 100 μL of a stop solution to each well of the plate, and absorbance was measured at 450 nm. MPO activity means the amount of 1 μM […] at 25° C. for 1 minute. This was calculated as the amount of MPO contained in 1 mL of the colon tissue homogenate.
as §5

The test system of experiment [4] is adhesion of intestinal epithelial cells (HT-29) and monocytic cells (U937) induced by IL-6. Kind of experiment: Inhibition of IL-6-induced adhesion of monocytes and intestinal epithelial cells. To be noted: Homo sapiens, 3 h; test drug 1 μM; IL-6 10 ng/mL; HT-29/U937; read-out: inhibitory activity (%). Type of experiment: cell-based, human. As for the experimental part:
The inhibitory activity test for intestinal epithelial cell-monocyte adhesion by IL-6 was performed using the same method as in the case of TNF-α. HT-29 cells were cultured in a 24-well plate at the density of 2×10^5 cells/cm^2, and the test drug was pretreated in a medium containing 1% FBS and 1% PS for 1 hour. Thereafter, 10 μg/mL of BCECF-AM was treated thereto and reacted at 37° C. for 30 minutes. U937 cells loaded with BCECF and IL-6 (10 ng/mL) were reacted with HT-29 cells previously treated with the test drug at 37° C. for 3 hours. Upon completion of the reaction, the medium was removed, and the culture flask was washed twice with PBS to remove non-adherent U937 cells. In the next step, the cells were lysed by treating with 0.1% Triton X-100 (0.1 M Tris) and reacted at room temperature for 30 minutes. Then, fluorescence was measured and quantified using a fluostar optima microplate reader (BMG Labtechnologies, Germany).

Experiment [5] relates to TNBS-induced inflammatory bowel disease rat model. Kind of experiment: Oral efficacy in TNBS-induced inflammatory bowel disease rat model. The format is in vivo, Sprague Dawley rats. As for the experimental part:
Sprague Dawley rats aged 7-8 weeks were purchased from OrientBio (Korea), stabilized with general solid feed for 3 days, and then used in this experiment. Feed and water were freely supplied during the experiment period, and the temperature of the breeding room was maintained at 25±1° C. and the relative humidity at 50±10%. Lighting management was controlled in a 12-hour light-dark cycle by an automatic lighting controller.
After anesthetizing rats that had been fasted for 24 hours with diethyl ether, 0.8 mL of 5% TNBS diluted with 50v/v % ethanol was slowly injected into the lumen of the colon using a 1 mL syringe connected to a polyethylene catheter, and then, the rats were left standing for 60 seconds in an inverted position in order to prevent 5% TNBS from leaking into the anus. For the control group, only vehicle [50v/v % ethanol] was injected in the same manner as in the other groups (Thapa et al., 2008).
In order to investigate the effect of the drug, the drug was administered at a constant time every day for 5 days from the day after the TNBS treatment.
Changes in body weight of each rat were observed from the fasting stage to the TNBS administration and drug administration process using a digital mass meter.
The colon of the rat was extracted, and the tissue 5-6 cm away from the anus was cut into a length of 1 cm, and the weight of the tissue was measured.
The weighed rat tissues were fixed with 4% paraformaldehyde solution, and then transferred to 30% sucrose solution. When the tissues subside, they were taken out and cut into […] thick using a cryomicrotome (Microm HM 450, Thermo Fisher Scientific, Germany) and stored in a cryopreservation solution. After washing the tissue section with KPBS, the tissue section was attached to a slide glass, dried, and then stained with hematoxylin & Eosin and observed under a microscope.

Setting [6] is: 30 mg/kg, listed as tofacitinib.
Setting [7] is: 300 mg/kg, dose-dependence test (Table 7).

Molecules are shown by their SMILES.

As for `C[C@@H]1CCN(C(=O)CC#N)C[C@@H]1N(C)c1ncnc2[nH]ccc12` [Tofacitinib, reference compound], the “Morphological observation of colon (length, macroscopic symptoms, adhesions, congestion)” value in experiment [1] is recorded as “significantly suppressed”. Moreover, the “Body weight recovery rate (%)” value in experiment [1] (30 mg/kg) was 29.5%; in experiment [1] (setting [6]), 29.4%; in experiment [3] (30 mg/kg), 80.8%; in experiment [3] (setting [6]), 80.9%. Moreover, the “Intestinal weight recovery rate (%)” value amounted to 68.2% in experiment [1] (30 mg/kg), 68.8% in experiment [1] (setting [6]) and 80.9% in experiment [3] (30 mg/kg). Moreover, the “degree of arthritis (visual observation score)” value in experiment [2] is “significantly improved dose dependently”. The inhibition at 1 µM in experiment [4] was 49.1%.

`O=C(O)c1cc(/N=N/c2ccc(S(=O)(=O)Nc3ccccn3)cc2)ccc1O` [Sulfasalazine, reference compound]: in experiment [1], the “Morphological observation of colon (length, macroscopic symptoms, adhesions, congestion)” value was “significantly suppressed”. For the same compound, the “Body weight recovery rate (%)” value in experiment [1] (300 mg/kg) came out at 22.8%; in experiment [3] (300 mg/kg), 65.9%; in experiment [5] (setting [7]), 86.6%; in experiment [5] (oral 300 mg/kg, 5 days, fixed-dose test (Table 6), 300 mg/kg), 86.6%; in experiment [5] (oral 300 mg/kg, 5 days, fixed-dose test (Table 6), listed as sulfasalazine, 300 mg/kg), 50.5%. Further, the “Intestinal weight recovery rate (%)” value in experiment [1] (300 mg/kg) is given as 66.9%; in experiment [1] (300 mg/kg, listed as sulfasalazine), 67.3%; in experiment [3] (300 mg/kg), 66.2%; in experiment [5] (setting [7]) it was 69.6%; in experiment [5] (oral 300 mg/kg, 5 days, fixed-dose test (Table 6)), 69.6%. Besides, in experiment [5] (after 5 days of drug administration, sulfasalazine 300 mg/kg, X-09 0.3-10 mg/kg), the “Morphological observation of colon (visual symptoms, adhesions, congestion)” value is “significantly suppressed”.
